Patent US11752162B2, “Compounds and compositions for treating solid tumors by intratumoral administration” (Novartis AG, priority 2017, dated 2023)
Each block holds one molecule with its values, some of them ahead of it.

Assays:
[1] = Pharmacokinetics and mass balance of aluminum and Compound 15 in male Wistar rats (Example 12); assay type: in vivo, rat; conditions: single i.v. dose equivalent to 0.2 mg of aluminum per animal
Protocol: The pharmacokinetics and mass balance of aluminum and Compound 15 were investigated following a single subcutaneous (s.c.) dose (1 mL) of Suspension H (Compound 15/Alhydrogel® at a 2:1 ratio of aluminum to Compound 15) in male Wistar rats. In addition, the pharmacokinetics of aluminum were investigated following a single intravenous (i.v.) dose (0.5 mL) of 0.4 mg/mL AlCl3.6H2O (equivalent to 0.2 mg of aluminum) in male Wistar rat. Additionally, a control group dosed subcutaneously with saline were evaluated for environmental background aluminum levels.
Metal free/trace metal grade containers/tubes/tips (<1 ng/g Al) were used for sample handling. Aluminum content was analyzed in serum and urine (Frontage Laboratories).
Approximately 0.3 to 0.5 mL of blood samples were collected from carotid artery cannulation at 0 (pre dose), 0.083 (IV only), 0.25 (IV only), 0.5, 3, 6, 24, 72, 168, 336, 504, 672 hours post dose.
Urine was collected from each animal for the following periods: 0 (24 h before dose), 0-24, 24-48, 48-72, 72-96, 96-168 hours post dose, then weekly up to 672 h. The urine samples were stored at −20° C. until analyzed. Feces were collected from each animal and samples were pooled per subject at the end of study at 672 h.
Compound 15 and aluminum levels were analyzed in the serum and urine samples obtained from the s.c. group whereas only aluminum levels were analyzed in the i.v. group.

[2] = Adsorption of compounds to aluminum hydroxide in histidine buffer (pH 6.8); assay type: physicochemical; conditions: histidine buffer pH 6.8, 0.1 mg/mL compound, 37° C. 5 hours
MC38 tumors = test: Contralateral MC38 colon cancer model, alone or with checkpoint inhibitors; assay type: in vivo, mouse; conditions: single agents; Compound 15 50 μg i.t. weekly x2, antibodies 10 mg/kg i.p. twice weekly
Protocol: MC38 cells were grown in sterile conditions in a 37° C. incubator with 5% CO2 for two weeks. The cells were cultured in Dulbecco's Modified Eagle's medium (DMEM) media supplemented with 10% FBS, cells were passed every 2-3 days. On the day of injection, cells were harvested (Passage 12) and re-suspended in Hanks' Balanced Salt Solution (HBSS) at a concentration of 2.5×10^6/ml. Cells were Radil tested for mycoplasma and murine viruses.
For each mouse, 0.25×10^6 cells were implanted with subcutaneously injection into right flank using a 28½ g needle ([…]). After the first implantation on day 3 (0.25×10^6) cells are implanted with a subcutaneous injection into left flank using a 28½ g needle (100 μL injection volume). Tumor sizes were assessed three times a week once tumors were palpable. Tumor sizes were determined by using caliper measurements, with tumor volumes calculated using the formula: (Length×Width×Width)/2.
Female C57BL/6 mice bearing the MC38 tumors were randomized into 7 groups (n=9 mice per group) 9 days post tumor cell implantation with an average tumor volume range of 69.09-142.25 mm^3, and the separate groups of tumor bearing mice received treatment as shown in Table 17.
The anti-tumor efficacy of Compound 15 adsorbed to aluminum hydroxide (Alhydrogel®) alone or in combination with checkpoint inhibitors, was determined using a contralateral MC38 colon cancer model. The tumor volume was obtained after two weekly intratumoral injections of Compound 15 adsorbed to aluminum hydroxide (50 μg each) either alone (Group 2), in a double combination with intraperitoneal injection (twice weekly) of an anti-PD-L1 antibody (10 mg/kg) (Group 5), in a double combination with intraperitoneal injection (twice weekly) of an anti-CTLA4 antibody (10 mg/kg) (Group 6), or in a triple combination with intraperitoneal injection (twice weekly) of an anti-PD-L1 antibody (10 mg/kg) and with intraperitoneal injection of an anti-CTLA4 antibody (10 mg/kg) (group 7). For comparison, data was obtained after an intraperitoneal injection (twice weekly) of the anti-PD-L1 antibody (10 mg/kg) alone (Group 3) and after an intraperitoneal injection (twice weekly) of the anti-CTLA4 antibody (10 mg/kg) alone (Group 4). The untreated control data was also obtained (Group 1).
The anti-tumor efficacy of Compound 15 alone (without aluminum hydroxide (Alhydrogel®)) or in combination with checkpoint inhibitors was determined using a contralateral MC38 colon cancer model. […] In addition, the anti-tumor efficacy of Compound 15 adsorbed to aluminum hydroxide (Alhydrogel®) alone or in a triple combination with checkpoint inhibitors was determined using a contralateral MC38 colon cancer model. […]

[3] = tested on: MC38 syngeneic colon cancer tumor model; test: MC38 syngeneic colon cancer tumor model, tumor volume at injection site and distant site; assay type: in vivo, mice; conditions: One-Way ANOVA post hoc Tukey, difference from no treatment
From the text: FIG. 10: A) Efficacy at the intratumor injection site following administration of Compound 15/aluminum hydroxide, an anti-PDL1 antibody or an anti-CTLA4 antibody as single agents or after the administration of combinations of Compound 15/aluminum hydroxide and an anti-PDL1 antibody and/or an anti-CTLA4 antibody.
The effect on tumor volume by administration of a compound of Formula (A), in the presence of aluminum-containing particles, with and without the administration of one or more checkpoint inhibitors is shown in Example 14.
Percent treatment/control (T/C) values for tumor were calculated using the following formula: % T/C=100×ΔT/ΔC if ΔT>0% % Regression=100×ΔT/Tinitial if ΔT<0 where: • T=mean tumor volume of the drug-treated group on the final day of the study; • ΔT=mean tumor volume of the drug-treated group on the final day of the study minus mean tumor volume of the drug-treated group on initial day of dosing; • Tinitial=mean tumor volume of the drug-treated group on initial day of dosing; • C=mean tumor volume of the control group on the final day of the study; • ΔC=mean tumor volume of the control group on the final day of the study minus mean tumor volume of the control group on initial day of dosing. All data were expressed as mean±standard error of the mean (SEM). Delta tumor volume

AUClast of aluminum [1]: 67400 ng·h/mL | mean Cmax of aluminum in serum [1]: 26000 ng/mL | mean Tmax of aluminum [1]: 13.2 min | mean recovery of aluminum in urine [1]: ~0.2 mg
Molecule: O.O.O.O.O.O.[Al+3].[Cl-].[Cl-].[Cl-] [AlCl3.6H2O]

% Bound [2]: 98.2%
Molecule: Cc1ccc2c(c1)nc(N)c1ncc(CCc3ccc(OCCOCCOCCC(F)(F)P(=O)(O)O)cc3C)cc12 [Compound 1, (3-(2-(2-(4-(2-(5-amino-8-methylbenzo[f][1,7]naphthyridin-2-yl)ethyl)-3-methylphenoxy)ethoxy)ethoxy)-1,1-difluoropropyl)phosphonic acid]

Molecule: Cc1cc(OCCCC(F)(F)P(=O)(O)O)ccc1CCc1cnc2c(N)nc3cc(CCC(=O)O)ccc3c2c1 [Compound 17, 3-(5-amino-2-(4-(4,4-difluoro-4-phosphonobutoxy)-2-methylphenethyl)benzo[f][1,7]naphthyridin-8-yl)propanoic acid]
% Bound [2]: 94.5%

% Bound [2]: 96.2%
Molecule: Cc1cc(OCCOCCOCCC(F)(F)P(=O)(O)O)ccc1CCc1cnc2c(N)nc3cc(CCC(=O)O)ccc3c2c1 [Compound 18, 3-(5-amino-2-(4-(2-(2-(3,3-difluoro-3-phosphonopropoxy)ethoxy)ethoxy)-2-methylphenethyl)benzo[f][1,7]naphthyridin-8-yl)propanoic acid]

% Bound [2]: 97.0%
Molecule: Cc1cc(OCCOCCOCCP(=O)(O)O)ccc1CCc1cnc2c(N)nc3cc(CCC(=O)O)ccc3c2c1 [Compound 20, 3-(5-amino-2-(2-methyl-4-(2-(2-(2-phosphonoethoxy)ethoxy)ethoxy)phenethyl)benzo[f][1,7]naphthyridin-8-yl)propanoic acid]

B1: anti-PD-L1: Anti-PD-L1 antibody BAP058-hum13 with heavy chain variable domain of SEQ ID NO:7 and light chain variable domain of SEQ ID NO:17 (antibody, V domains shown)
VH: EVQLVQSGAEVKKPGATVKISCKVSGYTFTSYWMYWVRQARGQRLEWIGRIDPNSGSTKYNEKFKNRFTISRDNSKNTLYLQMNSLRAEDTAVYYCARDYRKGLYAMDYWGQGTTVTVSS
VL: AIQLTQSPSSLSASVGDRVTITCKASQDVGTAVAWYLQKPGQSPQLLIYWASTRHTGVPSRFSGSGSGTDFTFTISSLEAEDAATYYCQQYNSYPLTFGQGTKVEIK
% T/C at the contralateral tumor site (MC38 tumors): 27.02% | % T/C at the primary injection site (MC38 tumors): 56.22%

B2: Anti PD-L1: anti-PDL1 antibody, inhibitor of the PD-L1 ligand, used as single agent or combination partner (antibody, V domains shown)
VH: EVQLVQSGAEVKKPGATVKISCKVSGYTFTSYWMYWVRQARGQRLEWIGRIDPNSGSTKYNEKFKNRFTISRDNSKNTLYLQMNSLRAEDTAVYYCARDYRKGLYAMDYWGQGTTVTVSS
VL: AIQLTQSPSSLSASVGDRVTITCKASQDVGTAVAWYLQKPGQSPQLLIYWASTRHTGVPSRFSGSGSGTDFTFTISSLEAEDAATYYCQQYNSYPLTFGQGTKVEIK
Efficacy at a site distant from the injection site (distant site tumor) ([3]; post implant day 19, N=9 per group): significantly different | Efficacy at the intratumor injection site (treated site tumor) ([3]; post implant day 22, N=9 per group): significantly different
